Literature values as cited in patent US20060172006A1, “Sustained-release tramadol formulations with 24-hour clinical efficacy” (priority 2003, published 2006).
Where a name gives a salt, the structure may show the parent alone.

Conditions: human, in vivo

COc1cccc(C2(O)CCCCC2CN(C)C)c1 (stereo not shown) [tramadol HCl, Tramadol hydrochloride]
Estimated incidence of seizures in patients: less than 1%
